In ChEMBL document CHEMBL1127271, “Synthesis of 1,2,4-triazine-(2H,4H)-3,5,-dione anticoccidial agents via palladium-catalyzed cross-coupling reactions” (Bioorg Med Chem Lett, 1994):
Calls of active or inactive are those of the source. The rule behind the calls is not given here.

Test system: Eimeria tenella
Assay: In vivo anti-coccidial activity determined at a dose of <16 p.p.m. (battery efficacy against Eimeria tenella); IA means Inactive
Format: functional, organism-based

(1-Cyclopentyl-vinyl)-trimethyl-stannane
Activity: inactive

CC1CC=C(c2c(Cl)cc(-n3ncc(=O)[nH]c3=O)cc2Cl)CC1 (centres undefined)
Activity: inactive

O=C(O)c1nn(-c2ccc(I)c(C(F)(F)F)c2)c(=O)[nH]c1=O
Activity: inactive

[1-(2,5-Dimethoxy-phenyl)-vinyl]-trimethyl-stannane
Activity: inactive

C=C(c1c(Cl)cc(-n2ncc(=O)[nH]c2=O)cc1Cl)C1CCCC1
Activity: inactive

C=C(c1c(Cl)cc(-n2ncc(=O)[nH]c2=O)cc1Cl)C1CCCCC1
Activity: inactive

Trimethyl-(4-methyl-cyclohex-1-enyl)-stannane
Activity: inactive

O=c1cnn(-c2ccc(I)c(C(F)(F)F)c2)c(=O)[nH]1
Activity: inactive

(1-Cyclohexyl-vinyl)-trimethyl-stannane
Activity: inactive
